Test results published in PubChem BioAssay (NCI).
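Each compound was tested at five concentrations against cells in 96-well plates for 48 hours. At the TGI there is no net growth.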

How the values were obtained:
Assay in all cases: DTP human tumour cell line panel, 48 h
SF-539 CNS = tested on: SF-539 CNS
SR leukemia = tested on: SR leukemia
SK-OV-3 ovarian = tested on: SK-OV-3 ovarian
HOP-62 NSCLC = tested on: HOP-62 NSCLC
MDA-N = tested on: MDA-N
MCF7 breast = tested on: MCF7 breast
SF-268 CNS = tested on: SF-268 CNS
HL-60(TB) leukemia = tested on: HL-60(TB) leukemia
OVCAR-5 ovarian = tested on: OVCAR-5 ovarian
UACC-257 melanoma = tested on: UACC-257 melanoma
IGROV1 ovarian = tested on: IGROV1 ovarian
OVCAR-4 ovarian = tested on: OVCAR-4 ovarian
PC-3 prostate = tested on: PC-3 prostate
OVCAR-8 ovarian = tested on: OVCAR-8 ovarian
SN12C renal = tested on: SN12C renal
786-0 renal = tested on: 786-0 renal
DU-145 prostate = tested on: DU-145 prostate
HCT-15 colon = tested on: HCT-15 colon
SW-620 colon = tested on: SW-620 colon
NCI-H23 lung = tested on: NCI-H23 lung
EKVX NSCLC = tested on: EKVX NSCLC
KM12 colon = tested on: KM12 colon
SNB-75 CNS = tested on: SNB-75 CNS
HT29 colon = tested on: HT29 colon
NCI/ADR-RES ovarian = tested on: NCI/ADR-RES ovarian
NCI-H226 lung = tested on: NCI-H226 lung
BT-549 breast = tested on: BT-549 breast
NCI-H522 lung = tested on: NCI-H522 lung
ACHN renal = tested on: ACHN renal
A498 renal = tested on: A498 renal
OVCAR-3 ovarian = tested on: OVCAR-3 ovarian
M14 melanoma = tested on: M14 melanoma
RPMI-8226 leukemia = tested on: RPMI-8226 leukemia
CCRF-CEM leukemia = tested on: CCRF-CEM leukemia
NCI-H460 lung = tested on: NCI-H460 lung
SK-MEL-2 melanoma = tested on: SK-MEL-2 melanoma
COLO 205 colon = tested on: COLO 205 colon
HS 578T breast = tested on: HS 578T breast
UACC-62 melanoma = tested on: UACC-62 melanoma
MDA-MB-231 breast = tested on: MDA-MB-231 breast
RXF 393 renal = tested on: RXF 393 renal
T-47D breast = tested on: T-47D breast
A549 NSCLC = tested on: A549 NSCLC
SNB-19 CNS = tested on: SNB-19 CNS
K-562 leukemia = tested on: K-562 leukemia
SK-MEL-28 melanoma = tested on: SK-MEL-28 melanoma
SK-MEL-5 melanoma = tested on: SK-MEL-5 melanoma
CAKI-1 renal = tested on: CAKI-1 renal
TK-10 renal = tested on: TK-10 renal
MOLT-4 leukemia = tested on: MOLT-4 leukemia
MDA-MB-435 = tested on: MDA-MB-435
SF-295 CNS = tested on: SF-295 CNS
UO-31 renal = tested on: UO-31 renal
HCT-116 colon = tested on: HCT-116 colon
HOP-92 NSCLC = tested on: HOP-92 NSCLC
MALME-3M melanoma = tested on: MALME-3M melanoma
LOX IMVI melanoma = tested on: LOX IMVI melanoma
HCC-2998 colon = tested on: HCC-2998 colon
U251 CNS = tested on: U251 CNS

Compound: CCOc1cc(NC(C)=O)ccc1C(=O)NN1C(=O)C(Cl)C1c1ccccc1 (configuration not stated)
- TGI (SF-539 CNS): 35.4 µM
- TGI (SR leukemia): 14.3 µM
- TGI (SK-OV-3 ovarian): 31.7 µM
- TGI (HOP-62 NSCLC): 44.4 µM
- TGI (MDA-N): 32.9 µM
- TGI (MCF7 breast): 22.9 µM
- TGI (SF-268 CNS): 43.8 µM
- TGI (HL-60(TB) leukemia): 36.1 µM
- TGI (OVCAR-5 ovarian): 31.4 µM
- TGI (UACC-257 melanoma): 28 µM
- TGI (IGROV1 ovarian): 18 µM
- TGI (OVCAR-4 ovarian): 32.7 µM
- TGI (PC-3 prostate): 27.8 µM
- TGI (OVCAR-8 ovarian): > 100 µM
- TGI (SN12C renal): 36.5 µM
- TGI (786-0 renal): 28.1 µM
- TGI (DU-145 prostate): 32.2 µM
- TGI (HCT-15 colon): 45.4 µM
- TGI (SW-620 colon): 59.6 µM
- TGI (NCI-H23 lung): 32.3 µM
- TGI (EKVX NSCLC): 28.7 µM
- TGI (KM12 colon): 32.9 µM
- TGI (SNB-75 CNS): 29.7 µM
- TGI (HT29 colon): 31.2 µM
- TGI (NCI/ADR-RES ovarian): 88.5 µM
- TGI (NCI-H226 lung): 46.3 µM
- TGI (BT-549 breast): 25.6 µM
- TGI (NCI-H522 lung): 5.82 µM
- TGI (ACHN renal): 29.7 µM
- TGI (A498 renal): 31.7 µM
- TGI (OVCAR-3 ovarian): 34.2 µM
- TGI (M14 melanoma): 27 µM
- TGI (RPMI-8226 leukemia): 28.7 µM
- TGI (CCRF-CEM leukemia): 38.6 µM
- TGI (NCI-H460 lung): 33.6 µM
- TGI (SK-MEL-2 melanoma): 29.9 µM
- TGI (COLO 205 colon): 31.8 µM
- TGI (HS 578T breast): 83.1 µM
- TGI (UACC-62 melanoma): 23.3 µM
- TGI (MDA-MB-231 breast): 26.7 µM
- TGI (RXF 393 renal): 33.5 µM
- TGI (T-47D breast): 35.4 µM
- TGI (A549 NSCLC): 33.3 µM
- TGI (SNB-19 CNS): 28.4 µM
- TGI (K-562 leukemia): 23.9 µM
- TGI (SK-MEL-28 melanoma): 36.4 µM
- TGI (SK-MEL-5 melanoma): 23.4 µM
- TGI (CAKI-1 renal): 30.1 µM
- TGI (TK-10 renal): 31.2 µM
- TGI (MOLT-4 leukemia): 21.3 µM
- TGI (MDA-MB-435): 26 µM
- TGI (SF-295 CNS): 37.1 µM
- TGI (UO-31 renal): 14.9 µM
- TGI (HCT-116 colon): 38.9 µM
- TGI (HOP-92 NSCLC): 31.7 µM
- TGI (MALME-3M melanoma): 25.2 µM
- TGI (LOX IMVI melanoma): 3.55 µM
- TGI (HCC-2998 colon): 32.3 µM

Compound: C=CCN1C(=O)/C(=C/c2ccco2)N=C1SC/C=C/C
- TGI (SF-539 CNS): > 100 µM
- TGI (SR leukemia): 52.9 µM
- TGI (SK-OV-3 ovarian): > 100 µM
- TGI (HOP-62 NSCLC): > 100 µM
- TGI (MDA-N): 77.5 µM
- TGI (MCF7 breast): 65.1 µM
- TGI (SF-268 CNS): > 100 µM
- TGI (HL-60(TB) leukemia): 76 µM
- TGI (OVCAR-5 ovarian): > 100 µM
- TGI (UACC-257 melanoma): > 100 µM
- TGI (IGROV1 ovarian): > 100 µM
- TGI (OVCAR-4 ovarian): > 100 µM
- TGI (PC-3 prostate): > 100 µM
- TGI (OVCAR-8 ovarian): > 100 µM
- TGI (SN12C renal): > 100 µM
- TGI (786-0 renal): > 100 µM
- TGI (DU-145 prostate): > 100 µM
- TGI (HCT-15 colon): > 100 µM
- TGI (SW-620 colon): > 100 µM
- TGI (NCI-H23 lung): > 100 µM
- TGI (EKVX NSCLC): > 100 µM
- TGI (KM12 colon): > 100 µM
- TGI (SNB-75 CNS): > 100 µM
- TGI (HT29 colon): > 100 µM
- TGI (NCI/ADR-RES ovarian): > 100 µM
- TGI (NCI-H226 lung): > 100 µM
- TGI (BT-549 breast): > 100 µM
- TGI (NCI-H522 lung): > 100 µM
- TGI (ACHN renal): > 100 µM
- TGI (A498 renal): > 100 µM
- TGI (OVCAR-3 ovarian): > 100 µM
- TGI (M14 melanoma): > 100 µM
- TGI (RPMI-8226 leukemia): 76.6 µM
- TGI (CCRF-CEM leukemia): > 100 µM
- TGI (NCI-H460 lung): > 100 µM
- TGI (SK-MEL-2 melanoma): 86.4 µM
- TGI (COLO 205 colon): > 100 µM
- TGI (HS 578T breast): > 100 µM
- TGI (UACC-62 melanoma): 73.7 µM
- TGI (MDA-MB-231 breast): > 100 µM
- TGI (RXF 393 renal): 96.1 µM
- TGI (T-47D breast): > 100 µM
- TGI (A549 NSCLC): > 100 µM
- TGI (SNB-19 CNS): > 100 µM
- TGI (K-562 leukemia): > 100 µM
- TGI (SK-MEL-28 melanoma): > 100 µM
- TGI (SK-MEL-5 melanoma): 44.3 µM
- TGI (CAKI-1 renal): > 100 µM
- TGI (TK-10 renal): > 100 µM
- TGI (MOLT-4 leukemia): 54.7 µM
- TGI (MDA-MB-435): > 100 µM
- TGI (SF-295 CNS): > 100 µM
- TGI (UO-31 renal): > 100 µM
- TGI (HCT-116 colon): > 100 µM
- TGI (HOP-92 NSCLC): > 100 µM
- TGI (MALME-3M melanoma): > 100 µM
- TGI (LOX IMVI melanoma): 80.6 µM
- TGI (U251 CNS): > 100 µM
- TGI (HCC-2998 colon): > 100 µM
